Measured values reported in US8795632B2, “Disease animal model for chronic pain” (Astellas Pharma Inc., priority 2008, dated 2014).

Experiments:
Sprague-Dawley rats = assay: Muscle pressure pain threshold value after repeated administration of reserpine; format: in vivo, rat; settings: for time after reserpine final administration until which muscle pressure pain threshold value was statistically significantly low vs solvent group: reserpine 1 mg/kg s.c. once a day for 3 days
Protocol: Measurement of muscle pressure pain threshold value was carried out in accordance with the method of Schafers et al. (Schafers M. et al., Pain, 104, 579-588, 2003). A pressure stimulus of gradually increasing to 250 g at the maximum was added to the rat right hind leg gastrocnemius muscle. […] The measurement was carried out 3 times at each point of time of the measurement, and the average was used as the measurement value. Measurement of the skin pain sensation threshold value was carried out in accordance with the method of Chaplan et al. (Chaplan et al., J. Neurosci. Methods, 53, 55-63, 1994). This was measured using a series of von Frey filaments having different diameters which may add a constant pressure. […] The von Frey filament was applied using the up and down method. That is, by firstly applying a filament of middle diameter, a filament having one rank smaller diameter was applied when the withdrawal reaction was observed or a filament having one rank larger diameter was applied when the withdrawal reaction was not observed. The skin pain sensation threshold value at each point of time of the measurement was calculated as a hind paw withdrawal reaction threshold value (g) using the calculation formula reported by Chaplan et al. (Chaplan et al., described above). Influences of reserpine upon the muscle pressure pain threshold value and skin pain sensation threshold value were examined by the following protocol. A total of 24 animals for each of male and female rats were used. After measuring muscle pressure pain threshold value and skin pain sensation threshold value before the reserpine treatment (base line), they were divided based on the reserpine administration doses into a solvent (0.5% acetic acid aqueous solution) group, a reserpine 0.1 mg/kg group, a 0.3 mg/kg group and a 1 mg/kg group (the number of animals per one group was 6). The solvent or reserpine was subcutaneously administered on the back of the rats of each group once a day for 3 days. All of the administration volume of the solvent or reserpine was set to 1 ml per 1 kg body weight of each animal. After final administration of the solvent or reserpine, the muscle pressure pain threshold value and skin pain sensation threshold value of each rat were measured 1, 3, 5, 7, 10, 14 and 21 days thereafter.
All of the measured values were expressed as average value±standard error. Statistical significance test of the measured values between the reserpine administration groups and the solvent administration group at each point of time was carried out by a two-way analysis of variance and the Bonferroni method. Probability value (P) of less than 5% was judged as statistically significant (P<0.05 was expressed as * in the graphs).

[1] = test system: dopamine, norepinephrine and serotonin in the spinal cord, thalamus and prefrontal cortex; assay: Amounts of dopamine, norepinephrine and serotonin in spinal cord, thalamus and prefrontal cortex after repeated administration of reserpine (HPLC-ECD); format: in vivo, rat
Protocol: Male Sprague-Dawley rats (7 weeks old, Japan SLC, Hamamatsu, Japan) were used as the animal.
A total of 96 rats were divided into 8 test schedules (collection of samples before administration and 1, 3, 5, 7, 10, 14 or 21 days after the final administration) and further divided each of them into a vehicle (0.5% acetic acid aqueous solution) administration group, a reserpine 0.1 mg/kg administration group, a 0.3 mg/kg administration group and a 1 mg/kg administration group, to 3 rats per group. As shown in Example 1, the vehicle or 0.1, 0.3 or 1 mg/kg of reserpine was repeatedly administered to each rat once a day for 3 days, and the brain and spinal cord were quickly collected 1, 3, 5, 7, 10, 14 or 21 days after the final administration. The thalamus and prefrontal cortex were separated from the brain on an ice-cold dish.
Regarding the sampling before administration, samples were collected before beginning of the repeated administration of vehicle or reserpine. The collected samples were quickly frozen and stored at −80° C. until their use in the measurements. On the day of the measurement, tissues of respective samples were subjected to wet weight measurement, homogenized in 0.2 M perchloric acid/0.1 mM EDTA-2Na solution using an ultrasonic homogenizer. After centrifugation at 15,000 g and at 4° C. for 15 minutes, the supernatant was adjusted to pH 3.5 using sodium acetate and filtered using a filter. Amounts of dopamine, norepinephrine and serotonin in these samples were measured using a high performance liquid chromatography (column: SC-50DS 30, 150 mm, Eicom Co., Ltd., Kyoto, Japan, mobile phase composition: 0.1 M sodium acetate buffer, 0.1 M citrate buffer, pH 3.5, 5 mg/l EDTA-2Na, 190 mg/l sodium octane sulfonic acid, 17% methanol) and an electrochemical detector (ECD-300, Eicom Co., Ltd., Kyoto, Japan). The measurement was carried out under conditions of flow rate 0.5 ml/min, applied voltage 750 mV and 25° C. Amounts of dopamine, norepinephrine and serotonin in the samples were quantified by comparing sample peak areas of respective standards measured on the same day of the sample measurement. All of the measured values were expressed as average value±standard error in the graphs, and unit of the measured values was set to ng/g tissue wet weight.
Statistical difference of the measured values between the reserpine administration group and the vehicle administration group in each test schedule was carried out by the two-way analysis of variance and the Bonferroni method. Probability value (P) of less than 5% was judged as statistically significant (P<0.05 was expressed as * in the graphs). In addition, average values of respective groups at each point of time were expressed as percentages of the average values of corresponding vehicle administration groups.

[2] = reserpine 0.1 mg/kg s.c. once a day for 3 days, 1 day after final administration
[3] = reserpine 0.3 mg/kg s.c. once a day for 3 days, 1 day after final administration
[4] = reserpine 1 mg/kg s.c. once a day for 3 days, 1 day after final administration
[5] = reserpine 1 mg/kg s.c. once a day for 3 days, after 21 days

COC(=O)[C@H]1[C@H]2C[C@@H]3c4[nH]c5cc(OC)ccc5c4CCN3C[C@H]2C[C@@H](OC(=O)c2cc(OC)c(OC)c(OC)c2)[C@@H]1OC [reserpine]
time after reserpine final administration until which muscle pressure pain threshold value was statistically significantly low vs solvent group (Sprague-Dawley rats; female rats): 7 days
muscle pressure pain threshold value (Sprague-Dawley rats; male and female rats, reserpine 0.1, 0.3, 1 mg/kg s.c. once a day for 3 days, two-way analysis of variance vs solvent): significantly reduced
time after reserpine final administration until which muscle pressure pain threshold value was statistically significantly low vs solvent group (Sprague-Dawley rats; male rats): 10 days
muscle pressure pain threshold value (Sprague-Dawley rats; reserpine 1 mg/kg group, s.c. once a day for 3 days): markedly reduced
duration of chronic muscle pain and chronic tactile allodynia after administration (Sprague-Dawley rats; reserpine administered to a mammal (summary statement)): ≥ 1 week
amount of dopamine in the prefrontal cortex, % of the vehicle administration group [1, 2]: 49.1%
amount of dopamine in the spinal cord, % of the vehicle administration group [1, 2]: 46.4%
amount of dopamine in the thalamus, % of the vehicle administration group [1, 2]: 49.2%
amount of norepinephrine in the prefrontal cortex, % of the vehicle administration group [1, 2]: 10.2%
amount of norepinephrine in the spinal cord, % of the vehicle administration group [1, 2]: 19.1%
amount of norepinephrine in the thalamus, % of the vehicle administration group [1, 2]: 43.8%
amount of serotonin in the prefrontal cortex, % of the vehicle administration group [1, 2]: 42.0%
amount of serotonin in the spinal cord, % of the vehicle administration group [1, 2]: 45.4%
amount of serotonin in the thalamus, % of the vehicle administration group [1, 2]: 28.8%
amount of dopamine in the prefrontal cortex, % of the vehicle administration group [1, 3]: 21.4%
amount of dopamine in the spinal cord, % of the vehicle administration group [1, 3]: 26.3%
amount of dopamine in the thalamus, % of the vehicle administration group [1, 3]: 53.2%
amount of norepinephrine in the prefrontal cortex, % of the vehicle administration group [1, 3]: 0.7%
amount of norepinephrine in the spinal cord, % of the vehicle administration group [1, 3]: 2.6%
amount of norepinephrine in the thalamus, % of the vehicle administration group [1, 3]: 6.1%
amount of serotonin in the prefrontal cortex, % of the vehicle administration group [1, 3]: 15.5%
amount of serotonin in the spinal cord, % of the vehicle administration group [1, 3]: 15.7%
amount of serotonin in the thalamus, % of the vehicle administration group [1, 3]: 14.8%
amount of dopamine in the prefrontal cortex, % of the vehicle administration group [1, 4]: 13.4%
amount of dopamine in the spinal cord, % of the vehicle administration group [1, 4]: 18.4%
amount of dopamine in the thalamus, % of the vehicle administration group [1, 4]: 24.5%
amount of norepinephrine in the prefrontal cortex, % of the vehicle administration group [1, 4]: 0.2%
amount of norepinephrine in the spinal cord, % of the vehicle administration group [1, 4]: 0.6%
amount of norepinephrine in the thalamus, % of the vehicle administration group [1, 4]: 1.2%
amount of serotonin in the prefrontal cortex, % of the vehicle administration group [1, 4]: 4.6%
amount of serotonin in the spinal cord, % of the vehicle administration group [1, 4]: 0.1%
amount of serotonin in the thalamus, % of the vehicle administration group [1, 4]: 8.9%
amount of dopamine in the prefrontal cortex, % of the vehicle administration group [1, 5]: 54.9%
amount of dopamine in the spinal cord, % of the vehicle administration group [1, 5]: 70.1%
amount of dopamine in the thalamus, % of the vehicle administration group [1, 5]: 66.5%
amount of norepinephrine in the prefrontal cortex, % of the vehicle administration group [1, 5]: 29.1%
amount of norepinephrine in the spinal cord, % of the vehicle administration group [1, 5]: 59.4%
amount of norepinephrine in the thalamus, % of the vehicle administration group [1, 5]: 46.0%
amount of serotonin in the prefrontal cortex, % of the vehicle administration group [1, 5]: 47.0%
amount of serotonin in the spinal cord, % of the vehicle administration group [1, 5]: 67.8%
amount of serotonin in the thalamus, % of the vehicle administration group [1, 5]: 60.7%
